Measured values as given in PMC10629583, “Specific inhibition of an anticancer target, polo-like kinase 1, by allosterically dismantling its mechanism of substrate recognition” (Proceedings of the National Academy of Sciences of the …, 2023).

Key:
Assay in all cases: PDSP off-target binding screen
Conditions in all cases: for inhibition at 10 µM: read-out: Primary screen AVE(%inhib)±SD; for Ki: read-out: Secondary screen Ki
5-HT1E = target: T1, 5-HT1E (Homo sapiens, UniProt P28566)
T1 construct: NIMH Psychoactive Drug Screening Program (UNC)
T1 sequence (P28566 whole entry): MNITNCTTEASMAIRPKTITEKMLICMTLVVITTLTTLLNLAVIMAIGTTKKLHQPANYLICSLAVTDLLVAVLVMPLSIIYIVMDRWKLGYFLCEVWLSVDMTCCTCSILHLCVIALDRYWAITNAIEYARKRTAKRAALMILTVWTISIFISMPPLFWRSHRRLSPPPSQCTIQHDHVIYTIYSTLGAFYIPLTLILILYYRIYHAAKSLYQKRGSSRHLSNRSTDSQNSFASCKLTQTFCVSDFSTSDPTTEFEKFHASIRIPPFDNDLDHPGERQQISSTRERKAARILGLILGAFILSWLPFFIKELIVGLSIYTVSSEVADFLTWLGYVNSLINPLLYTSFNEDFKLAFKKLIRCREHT
Excerpt: (§1) PDSP no. Compound Interactions (Ki, µM)
(§2) 60477 Allopole-A None observed.
(§3) trigger a secondary screen at that receptor.

Alpha1D = target: T2, Alpha1D (Homo sapiens, UniProt P25100)
T2 sequence (P25100 1-572): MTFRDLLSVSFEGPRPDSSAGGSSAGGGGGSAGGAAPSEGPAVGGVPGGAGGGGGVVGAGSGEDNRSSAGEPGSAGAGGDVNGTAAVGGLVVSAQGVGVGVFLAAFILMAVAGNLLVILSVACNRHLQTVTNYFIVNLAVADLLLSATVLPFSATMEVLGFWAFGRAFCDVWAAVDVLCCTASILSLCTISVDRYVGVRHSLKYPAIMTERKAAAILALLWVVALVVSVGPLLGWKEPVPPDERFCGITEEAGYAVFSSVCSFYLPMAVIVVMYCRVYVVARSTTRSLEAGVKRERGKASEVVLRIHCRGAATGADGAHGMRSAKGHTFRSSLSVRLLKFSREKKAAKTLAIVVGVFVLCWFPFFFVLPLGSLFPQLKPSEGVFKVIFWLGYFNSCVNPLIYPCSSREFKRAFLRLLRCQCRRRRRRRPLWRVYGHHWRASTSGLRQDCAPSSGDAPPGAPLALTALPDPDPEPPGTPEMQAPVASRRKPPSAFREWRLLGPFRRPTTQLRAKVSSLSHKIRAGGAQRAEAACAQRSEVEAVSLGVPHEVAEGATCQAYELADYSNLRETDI
Excerpt: as §1, §2, §3

Alpha2A = target: T3, Alpha2A (Homo sapiens, UniProt P08913)
T3 sequence (P08913 1-465): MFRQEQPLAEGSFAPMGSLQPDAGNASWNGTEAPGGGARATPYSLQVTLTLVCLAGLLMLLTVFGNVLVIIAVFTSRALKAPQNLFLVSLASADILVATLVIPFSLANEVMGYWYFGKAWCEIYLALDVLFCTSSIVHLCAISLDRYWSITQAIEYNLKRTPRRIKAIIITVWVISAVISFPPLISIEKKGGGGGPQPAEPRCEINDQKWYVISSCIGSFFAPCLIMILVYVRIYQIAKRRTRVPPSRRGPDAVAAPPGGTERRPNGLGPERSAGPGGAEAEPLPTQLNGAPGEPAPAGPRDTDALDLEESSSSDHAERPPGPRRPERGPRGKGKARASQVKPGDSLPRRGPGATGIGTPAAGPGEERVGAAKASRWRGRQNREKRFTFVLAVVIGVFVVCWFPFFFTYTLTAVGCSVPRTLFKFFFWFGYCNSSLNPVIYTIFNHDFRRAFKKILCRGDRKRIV
Excerpt: as §1, §2, §3

H1 = H1 (Homo sapiens, UniProt P35367)
H1, sequence (P35367 whole entry): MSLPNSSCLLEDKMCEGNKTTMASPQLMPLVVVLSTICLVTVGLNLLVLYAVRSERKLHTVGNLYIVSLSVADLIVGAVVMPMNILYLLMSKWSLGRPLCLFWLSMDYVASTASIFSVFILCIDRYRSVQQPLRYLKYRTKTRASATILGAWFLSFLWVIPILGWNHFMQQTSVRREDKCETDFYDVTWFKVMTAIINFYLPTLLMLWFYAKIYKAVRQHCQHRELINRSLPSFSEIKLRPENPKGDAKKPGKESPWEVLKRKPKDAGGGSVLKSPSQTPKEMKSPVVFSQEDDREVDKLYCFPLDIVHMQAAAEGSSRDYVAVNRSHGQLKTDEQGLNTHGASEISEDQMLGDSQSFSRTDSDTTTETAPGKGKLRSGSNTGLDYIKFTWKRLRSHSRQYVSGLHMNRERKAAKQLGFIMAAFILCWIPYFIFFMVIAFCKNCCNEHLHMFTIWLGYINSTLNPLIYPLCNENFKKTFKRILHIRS
Excerpt: as §1, §2, §3

Beta2 = Beta2 (Homo sapiens, UniProt P07550)
Beta2, sequence (P07550 whole entry): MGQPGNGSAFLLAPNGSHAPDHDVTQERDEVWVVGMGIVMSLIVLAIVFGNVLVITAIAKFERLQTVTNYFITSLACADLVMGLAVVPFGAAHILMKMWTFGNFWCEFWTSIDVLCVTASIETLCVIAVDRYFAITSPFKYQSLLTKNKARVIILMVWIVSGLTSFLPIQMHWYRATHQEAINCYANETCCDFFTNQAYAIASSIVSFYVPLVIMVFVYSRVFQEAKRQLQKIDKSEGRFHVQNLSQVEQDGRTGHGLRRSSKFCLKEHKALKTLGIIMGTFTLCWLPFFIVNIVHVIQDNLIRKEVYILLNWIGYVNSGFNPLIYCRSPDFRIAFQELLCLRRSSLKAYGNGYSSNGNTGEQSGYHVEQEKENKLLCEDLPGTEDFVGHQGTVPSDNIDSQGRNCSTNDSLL
Excerpt: as §1, §2, §3

Beta1 = Beta1 (Homo sapiens, UniProt P08588)
Beta1, sequence (P08588 whole entry): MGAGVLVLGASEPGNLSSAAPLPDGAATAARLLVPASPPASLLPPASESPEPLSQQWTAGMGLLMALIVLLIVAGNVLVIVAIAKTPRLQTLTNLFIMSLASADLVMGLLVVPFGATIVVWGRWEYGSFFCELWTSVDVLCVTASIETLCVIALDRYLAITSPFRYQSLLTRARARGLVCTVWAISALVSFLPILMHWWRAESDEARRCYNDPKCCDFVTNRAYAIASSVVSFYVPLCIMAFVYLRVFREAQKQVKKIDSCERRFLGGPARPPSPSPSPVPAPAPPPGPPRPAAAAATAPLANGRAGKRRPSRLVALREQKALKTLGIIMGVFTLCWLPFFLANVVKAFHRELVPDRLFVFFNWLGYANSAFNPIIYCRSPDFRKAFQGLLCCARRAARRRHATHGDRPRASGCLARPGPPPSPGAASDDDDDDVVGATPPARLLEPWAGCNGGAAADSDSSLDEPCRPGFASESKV
Excerpt: as §1, §2, §3

DOR = DOR (Homo sapiens, UniProt P41143)
DOR, sequence (P41143 whole entry): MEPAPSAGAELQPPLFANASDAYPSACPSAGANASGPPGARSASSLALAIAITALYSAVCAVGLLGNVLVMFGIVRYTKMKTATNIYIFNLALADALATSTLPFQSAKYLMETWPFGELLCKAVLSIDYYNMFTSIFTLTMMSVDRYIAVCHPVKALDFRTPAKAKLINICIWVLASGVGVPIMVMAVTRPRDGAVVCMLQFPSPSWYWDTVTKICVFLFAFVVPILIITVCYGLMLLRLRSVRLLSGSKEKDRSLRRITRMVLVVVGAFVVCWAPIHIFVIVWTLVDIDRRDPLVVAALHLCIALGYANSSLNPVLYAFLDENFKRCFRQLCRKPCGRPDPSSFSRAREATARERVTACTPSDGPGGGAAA
Excerpt: as §1, §2, §3

M5 = target: T4, M5 (Homo sapiens, UniProt P08912)
T4 sequence (P08912 1-532): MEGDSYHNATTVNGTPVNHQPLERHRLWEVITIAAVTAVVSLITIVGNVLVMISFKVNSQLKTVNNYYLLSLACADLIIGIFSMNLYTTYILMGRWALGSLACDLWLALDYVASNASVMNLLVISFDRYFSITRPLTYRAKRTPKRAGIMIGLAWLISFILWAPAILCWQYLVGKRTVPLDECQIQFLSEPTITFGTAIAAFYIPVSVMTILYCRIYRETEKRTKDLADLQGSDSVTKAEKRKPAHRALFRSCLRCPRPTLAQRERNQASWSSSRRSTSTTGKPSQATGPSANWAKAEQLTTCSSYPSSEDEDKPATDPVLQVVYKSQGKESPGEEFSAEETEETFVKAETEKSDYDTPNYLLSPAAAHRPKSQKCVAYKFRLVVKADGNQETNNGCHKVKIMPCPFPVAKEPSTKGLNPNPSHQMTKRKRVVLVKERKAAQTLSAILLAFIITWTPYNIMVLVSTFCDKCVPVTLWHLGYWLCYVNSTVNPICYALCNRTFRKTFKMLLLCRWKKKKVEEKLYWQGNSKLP
Excerpt: as §1, §2, §3

MOR = MOR (Homo sapiens, UniProt P35372)
MOR, sequence (P35372 whole entry): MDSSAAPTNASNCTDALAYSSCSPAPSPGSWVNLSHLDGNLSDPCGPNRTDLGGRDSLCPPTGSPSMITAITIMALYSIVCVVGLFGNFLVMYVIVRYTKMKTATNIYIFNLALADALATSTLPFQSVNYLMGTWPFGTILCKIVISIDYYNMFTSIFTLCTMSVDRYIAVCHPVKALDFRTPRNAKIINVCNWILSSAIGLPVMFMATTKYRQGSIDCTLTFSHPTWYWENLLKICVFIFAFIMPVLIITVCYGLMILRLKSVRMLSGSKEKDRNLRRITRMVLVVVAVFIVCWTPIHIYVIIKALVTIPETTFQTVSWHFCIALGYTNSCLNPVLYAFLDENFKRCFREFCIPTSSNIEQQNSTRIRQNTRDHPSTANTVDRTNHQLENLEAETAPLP
Excerpt: as §1, §2, §3

5-HT1B = target: T5, 5-HT1B (Homo sapiens, UniProt P28222)
T5 construct: NIMH Psychoactive Drug Screening Program (UNC)
T5 sequence (P28222 whole entry): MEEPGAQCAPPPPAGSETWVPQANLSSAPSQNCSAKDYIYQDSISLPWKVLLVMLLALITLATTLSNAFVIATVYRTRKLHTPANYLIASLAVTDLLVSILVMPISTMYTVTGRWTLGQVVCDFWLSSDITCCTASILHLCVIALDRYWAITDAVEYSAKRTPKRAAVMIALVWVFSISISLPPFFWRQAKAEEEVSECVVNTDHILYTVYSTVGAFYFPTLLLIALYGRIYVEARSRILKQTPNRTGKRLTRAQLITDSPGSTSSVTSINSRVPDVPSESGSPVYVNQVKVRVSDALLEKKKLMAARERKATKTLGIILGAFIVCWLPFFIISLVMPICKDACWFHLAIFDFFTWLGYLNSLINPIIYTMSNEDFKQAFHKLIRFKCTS
Excerpt: as §1, §2, §3

M2 = target: T6, M2 (Homo sapiens, UniProt P08172)
T6 sequence (P08172 1-466): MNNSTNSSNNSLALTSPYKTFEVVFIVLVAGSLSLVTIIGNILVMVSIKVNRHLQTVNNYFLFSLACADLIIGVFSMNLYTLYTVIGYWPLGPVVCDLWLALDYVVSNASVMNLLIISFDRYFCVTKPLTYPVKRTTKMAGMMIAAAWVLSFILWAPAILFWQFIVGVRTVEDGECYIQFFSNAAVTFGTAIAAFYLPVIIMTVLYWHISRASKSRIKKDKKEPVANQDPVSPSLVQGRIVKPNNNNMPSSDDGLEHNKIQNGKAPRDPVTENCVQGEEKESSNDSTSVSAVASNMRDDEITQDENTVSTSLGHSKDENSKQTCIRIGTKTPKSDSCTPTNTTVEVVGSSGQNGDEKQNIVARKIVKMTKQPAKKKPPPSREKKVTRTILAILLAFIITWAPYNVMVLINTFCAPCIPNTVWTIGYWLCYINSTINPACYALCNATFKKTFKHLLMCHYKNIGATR
Excerpt: as §1, §2, §3

Sigma 1 = Sigma 1 (Homo sapiens, UniProt Q99720)
Sigma 1, sequence (Q99720 whole entry): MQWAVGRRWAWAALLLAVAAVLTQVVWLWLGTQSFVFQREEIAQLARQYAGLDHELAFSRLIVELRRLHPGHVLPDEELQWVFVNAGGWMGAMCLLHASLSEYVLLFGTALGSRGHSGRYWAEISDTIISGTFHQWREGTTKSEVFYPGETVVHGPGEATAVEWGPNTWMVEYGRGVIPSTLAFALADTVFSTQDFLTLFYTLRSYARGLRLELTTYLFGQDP
Excerpt: as §1, §2, §3

5-HT7A = 5-HT7A (Homo sapiens, UniProt P34969)
5-HT7A, sequence (P34969 1-445 isoform P34969-2): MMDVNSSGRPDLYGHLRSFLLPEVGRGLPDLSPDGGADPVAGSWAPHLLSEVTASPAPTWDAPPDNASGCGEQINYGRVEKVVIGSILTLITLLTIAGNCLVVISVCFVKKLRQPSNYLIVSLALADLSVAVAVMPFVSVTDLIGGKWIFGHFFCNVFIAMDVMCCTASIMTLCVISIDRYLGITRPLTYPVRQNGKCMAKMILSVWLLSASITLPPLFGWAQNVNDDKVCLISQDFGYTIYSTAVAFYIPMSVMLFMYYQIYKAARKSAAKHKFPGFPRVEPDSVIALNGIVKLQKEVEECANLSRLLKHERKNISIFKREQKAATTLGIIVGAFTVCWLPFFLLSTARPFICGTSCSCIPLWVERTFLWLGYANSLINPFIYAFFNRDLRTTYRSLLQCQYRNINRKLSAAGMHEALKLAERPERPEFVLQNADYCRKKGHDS
Excerpt: as §1, §2, §3

O=c1c2sc(Cl)cc2n2c(=S)[nH]nc2n1CC1CC1 [Allopole-A]
inhibition at 10 µM (5-HT1E): 31.3 ± 7.6%
Ki (5-HT1E): > 10 µM
inhibition at 10 µM (Alpha1D): -9.9 ± 23.4%
Ki (Alpha1D): > 10 µM
inhibition at 10 µM (Alpha2A): -6.3 ± 7.9%
Ki (Alpha2A): > 10 µM
inhibition at 10 µM (H1): 11.5 ± 2.8%
Ki (H1): > 10 µM
inhibition at 10 µM (Beta2): -2.1 ± 19.7%
Ki (Beta2): > 10 µM
inhibition at 10 µM (Beta1): -6.2 ± 19.4%
Ki (Beta1): > 10 µM
inhibition at 10 µM (DOR): -13.5 ± 6.8%
Ki (DOR): > 10 µM
inhibition at 10 µM (M5): 130 ± 3%
Ki (M5): > 10 µM
inhibition at 10 µM (MOR): 30.8 ± 47.5%
Ki (MOR): > 10 µM
inhibition at 10 µM (5-HT1B): 17.7 ± 42.2%
Ki (5-HT1B): > 10 µM
inhibition at 10 µM (M2): 21.1 ± 19.7%
Ki (M2): > 10 µM
inhibition at 10 µM (Sigma 1): 2 ± 21.4%
Ki (Sigma 1): > 10 µM
inhibition at 10 µM (5-HT7A): -88.1 ± 20.8%
Ki (5-HT7A): > 10 µM

Cn1cnc([N+](=O)[O-])c1Sc1nnc2n(CC3CC3)c(=O)c3sc(Cl)cc3n12 [Allopole]
inhibition at 10 µM (5-HT1E): 22.2 ± 10.5%
Ki (5-HT1E): > 10 µM
inhibition at 10 µM (Alpha1D): -15.1 ± 19.8%
Ki (Alpha1D): > 10 µM
inhibition at 10 µM (Alpha2A): 9.4 ± 4.6%
Ki (Alpha2A): > 10 µM
inhibition at 10 µM (H1): 35.8 ± 11.9%
Ki (H1): > 10 µM
inhibition at 10 µM (Beta2): 0.1 ± 10.6%
Ki (Beta2): > 10 µM
inhibition at 10 µM (Beta1): 67.3 ± 49.1%
Ki (Beta1): > 10 µM
inhibition at 10 µM (DOR): -1 ± 4.8%
Ki (DOR): > 10 µM
inhibition at 10 µM (M5): 95 ± 7.4%
Ki (M5): > 10 µM
inhibition at 10 µM (MOR): 40.6 ± 51%
Ki (MOR): > 10 µM
inhibition at 10 µM (5-HT1B): 60.8 ± 40.9%
Ki (5-HT1B): > 10 µM
inhibition at 10 µM (M2): 9.3 ± 19.3%
Ki (M2): > 10 µM
inhibition at 10 µM (Sigma 1): 41.8 ± 11.9%
Ki (Sigma 1): > 10 µM
inhibition at 10 µM (5-HT7A): 14.9 ± 9.9%
Ki (5-HT7A): > 10 µM
